Reference: ChEMBL document CHEMBL3991601, “The target landscape of clinical kinase drugs” (Science, 2017)
Calls of active or inactive are those of the source. Cut-off read from the data, not from the text of the source, for most assays here: actives have a measured Kd and inactives only a lower limit.

How the values were obtained:
Adenosine kinase = Adenosine kinase (Homo sapiens, UniProt P55263)
[1] = target: Tyrosine-protein kinase BTK (Homo sapiens, UniProt Q06187)
[2] = target: Cyclin-dependent kinase 1 (Homo sapiens, UniProt P06493)
[3] = target: Casein kinase II subunit alpha' (Homo sapiens, UniProt P19784)
[4] = target: Eukaryotic translation initiation factor 2-alpha kinase 1 (Homo sapiens, UniProt Q9BQI3)
[5] = target: Mitogen-activated protein kinase kinase kinase 1 (Homo sapiens, UniProt Q13233)
[6] = target: Mitogen-activated protein kinase kinase kinase 4 (Homo sapiens, UniProt Q9Y6R4)
[7] = target: Mitogen-activated protein kinase kinase kinase kinase 1 (Homo sapiens, UniProt Q92918)
[8] = target: T1, RNA cytidine acetyltransferase (Homo sapiens, UniProt Q9H0A0)
T1 sequence (Q9H0A0 whole entry): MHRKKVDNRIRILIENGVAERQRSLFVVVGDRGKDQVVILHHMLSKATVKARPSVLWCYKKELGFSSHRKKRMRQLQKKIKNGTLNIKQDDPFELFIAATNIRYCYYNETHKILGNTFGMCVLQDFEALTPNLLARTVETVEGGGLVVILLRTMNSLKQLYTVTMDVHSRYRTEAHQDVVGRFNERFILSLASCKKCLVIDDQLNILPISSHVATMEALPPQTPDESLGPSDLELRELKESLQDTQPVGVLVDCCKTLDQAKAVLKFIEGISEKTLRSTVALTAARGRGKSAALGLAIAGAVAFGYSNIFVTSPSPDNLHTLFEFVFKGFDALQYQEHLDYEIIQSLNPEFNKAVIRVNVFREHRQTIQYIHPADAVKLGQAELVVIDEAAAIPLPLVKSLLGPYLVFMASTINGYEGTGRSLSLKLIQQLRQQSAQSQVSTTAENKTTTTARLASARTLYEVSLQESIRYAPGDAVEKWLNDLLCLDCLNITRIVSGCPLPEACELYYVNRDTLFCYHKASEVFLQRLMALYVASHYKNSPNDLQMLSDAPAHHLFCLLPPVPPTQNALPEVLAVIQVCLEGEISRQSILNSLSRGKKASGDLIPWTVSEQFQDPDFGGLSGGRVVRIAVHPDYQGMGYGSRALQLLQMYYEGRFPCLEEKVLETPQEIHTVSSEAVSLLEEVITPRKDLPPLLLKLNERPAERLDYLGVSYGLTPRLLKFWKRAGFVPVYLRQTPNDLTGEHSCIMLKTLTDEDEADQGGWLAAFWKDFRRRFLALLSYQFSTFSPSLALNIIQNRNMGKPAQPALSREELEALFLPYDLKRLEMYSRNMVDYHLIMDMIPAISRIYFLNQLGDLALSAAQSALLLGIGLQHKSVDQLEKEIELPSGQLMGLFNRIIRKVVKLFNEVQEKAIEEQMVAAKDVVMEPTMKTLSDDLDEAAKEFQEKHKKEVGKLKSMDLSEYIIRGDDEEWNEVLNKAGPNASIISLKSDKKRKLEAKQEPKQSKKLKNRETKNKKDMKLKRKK

[9] = target: Serine/threonine-protein kinase PAK 2 (Homo sapiens, UniProt Q13177)
[10] = target: Platelet-derived growth factor receptor beta (Homo sapiens, UniProt P09619)
[11] = target: T2, Serine/threonine-protein kinase 3 (Homo sapiens, UniProt Q13188)
T2 sequence (Q13188 whole entry): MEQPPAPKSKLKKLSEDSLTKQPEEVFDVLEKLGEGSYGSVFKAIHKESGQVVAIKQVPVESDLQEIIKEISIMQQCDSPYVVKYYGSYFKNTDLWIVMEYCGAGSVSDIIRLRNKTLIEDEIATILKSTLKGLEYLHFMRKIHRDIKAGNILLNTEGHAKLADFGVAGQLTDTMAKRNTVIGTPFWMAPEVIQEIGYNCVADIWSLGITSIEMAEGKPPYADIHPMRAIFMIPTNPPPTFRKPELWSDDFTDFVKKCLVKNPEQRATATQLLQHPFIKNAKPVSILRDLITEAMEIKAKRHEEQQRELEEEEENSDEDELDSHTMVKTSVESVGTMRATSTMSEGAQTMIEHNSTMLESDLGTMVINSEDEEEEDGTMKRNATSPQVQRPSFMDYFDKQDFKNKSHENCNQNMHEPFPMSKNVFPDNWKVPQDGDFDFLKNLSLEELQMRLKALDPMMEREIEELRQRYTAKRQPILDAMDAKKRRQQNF

[12] = target: T3, Succinate--CoA ligase [ADP-forming] subunit beta, mitochondrial (Homo sapiens, UniProt Q9P2R7)
T3 sequence (Q9P2R7 whole entry): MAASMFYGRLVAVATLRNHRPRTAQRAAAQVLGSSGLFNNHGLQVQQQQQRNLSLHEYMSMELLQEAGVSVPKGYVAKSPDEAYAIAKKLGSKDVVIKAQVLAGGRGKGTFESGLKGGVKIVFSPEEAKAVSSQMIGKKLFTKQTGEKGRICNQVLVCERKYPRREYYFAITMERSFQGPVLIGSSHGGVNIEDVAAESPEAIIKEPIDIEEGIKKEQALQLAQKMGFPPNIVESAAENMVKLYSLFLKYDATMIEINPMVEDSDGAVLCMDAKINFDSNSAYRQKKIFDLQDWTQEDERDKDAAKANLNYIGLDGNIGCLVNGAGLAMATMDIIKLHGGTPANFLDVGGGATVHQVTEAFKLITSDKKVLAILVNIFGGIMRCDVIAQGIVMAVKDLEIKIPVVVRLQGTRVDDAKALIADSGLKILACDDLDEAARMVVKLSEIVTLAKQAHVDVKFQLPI

[13] = target: Tyrosine-protein kinase SYK (Homo sapiens, UniProt P43405)
Note: in the data inactive means no Kd found up to 30 µM.

Sequence of Tyrosine-protein kinase BTK (Q06187 whole entry): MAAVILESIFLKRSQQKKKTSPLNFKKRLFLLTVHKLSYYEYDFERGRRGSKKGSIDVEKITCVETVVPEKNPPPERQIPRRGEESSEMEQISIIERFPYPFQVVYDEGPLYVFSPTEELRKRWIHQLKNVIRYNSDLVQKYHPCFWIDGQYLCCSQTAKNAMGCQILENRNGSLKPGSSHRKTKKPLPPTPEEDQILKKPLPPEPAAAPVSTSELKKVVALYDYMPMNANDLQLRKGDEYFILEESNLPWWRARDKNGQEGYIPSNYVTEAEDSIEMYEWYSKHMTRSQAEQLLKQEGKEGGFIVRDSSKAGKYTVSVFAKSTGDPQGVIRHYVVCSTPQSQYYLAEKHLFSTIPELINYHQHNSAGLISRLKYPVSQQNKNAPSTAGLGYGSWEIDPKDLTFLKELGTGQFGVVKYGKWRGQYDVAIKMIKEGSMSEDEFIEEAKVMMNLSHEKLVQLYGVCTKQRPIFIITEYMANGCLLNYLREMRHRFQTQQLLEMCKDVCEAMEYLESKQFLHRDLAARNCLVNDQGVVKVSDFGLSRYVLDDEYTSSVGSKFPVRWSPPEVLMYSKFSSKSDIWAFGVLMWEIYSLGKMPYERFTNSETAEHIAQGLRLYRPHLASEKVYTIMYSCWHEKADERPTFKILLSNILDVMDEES
Sequence of Mitogen-activated protein kinase kinase kinase 1 (Q13233 whole entry): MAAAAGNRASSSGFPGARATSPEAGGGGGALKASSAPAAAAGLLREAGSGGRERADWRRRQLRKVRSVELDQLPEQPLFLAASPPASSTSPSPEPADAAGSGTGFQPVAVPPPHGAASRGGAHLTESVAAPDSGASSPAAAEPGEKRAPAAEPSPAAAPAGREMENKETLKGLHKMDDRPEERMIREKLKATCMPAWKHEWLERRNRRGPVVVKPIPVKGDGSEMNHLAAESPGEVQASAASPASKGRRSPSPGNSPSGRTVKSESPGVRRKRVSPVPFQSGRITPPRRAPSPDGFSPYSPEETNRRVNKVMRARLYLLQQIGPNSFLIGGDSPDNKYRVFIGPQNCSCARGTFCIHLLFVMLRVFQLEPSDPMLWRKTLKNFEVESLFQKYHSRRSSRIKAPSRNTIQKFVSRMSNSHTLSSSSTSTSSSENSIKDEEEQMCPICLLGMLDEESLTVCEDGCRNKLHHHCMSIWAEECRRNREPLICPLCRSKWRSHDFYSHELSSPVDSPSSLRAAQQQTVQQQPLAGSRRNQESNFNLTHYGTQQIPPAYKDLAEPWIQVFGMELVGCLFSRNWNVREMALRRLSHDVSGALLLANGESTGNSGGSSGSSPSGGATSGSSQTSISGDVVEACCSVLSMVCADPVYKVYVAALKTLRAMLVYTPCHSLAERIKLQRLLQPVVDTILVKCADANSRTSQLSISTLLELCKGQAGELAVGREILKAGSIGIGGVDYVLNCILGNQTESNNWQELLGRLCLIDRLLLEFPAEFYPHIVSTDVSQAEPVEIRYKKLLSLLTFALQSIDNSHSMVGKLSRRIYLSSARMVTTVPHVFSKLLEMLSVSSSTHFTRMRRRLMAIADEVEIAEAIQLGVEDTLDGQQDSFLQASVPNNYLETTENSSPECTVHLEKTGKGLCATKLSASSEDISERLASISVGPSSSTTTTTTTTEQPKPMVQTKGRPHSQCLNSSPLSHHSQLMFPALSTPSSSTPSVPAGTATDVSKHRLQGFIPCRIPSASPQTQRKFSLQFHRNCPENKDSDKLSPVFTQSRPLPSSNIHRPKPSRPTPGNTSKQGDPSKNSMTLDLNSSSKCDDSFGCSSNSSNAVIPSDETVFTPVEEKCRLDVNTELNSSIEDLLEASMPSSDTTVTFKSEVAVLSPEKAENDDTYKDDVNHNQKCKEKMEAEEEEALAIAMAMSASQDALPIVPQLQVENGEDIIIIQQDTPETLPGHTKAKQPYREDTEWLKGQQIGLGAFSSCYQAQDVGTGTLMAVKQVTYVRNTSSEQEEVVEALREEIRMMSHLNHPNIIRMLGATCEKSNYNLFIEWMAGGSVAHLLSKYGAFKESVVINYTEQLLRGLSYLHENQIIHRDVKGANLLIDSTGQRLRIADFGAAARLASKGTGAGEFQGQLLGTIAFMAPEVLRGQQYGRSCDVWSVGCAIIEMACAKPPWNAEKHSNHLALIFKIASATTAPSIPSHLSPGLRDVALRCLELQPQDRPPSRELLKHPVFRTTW
Sequence of Adenosine kinase (P55263 whole entry): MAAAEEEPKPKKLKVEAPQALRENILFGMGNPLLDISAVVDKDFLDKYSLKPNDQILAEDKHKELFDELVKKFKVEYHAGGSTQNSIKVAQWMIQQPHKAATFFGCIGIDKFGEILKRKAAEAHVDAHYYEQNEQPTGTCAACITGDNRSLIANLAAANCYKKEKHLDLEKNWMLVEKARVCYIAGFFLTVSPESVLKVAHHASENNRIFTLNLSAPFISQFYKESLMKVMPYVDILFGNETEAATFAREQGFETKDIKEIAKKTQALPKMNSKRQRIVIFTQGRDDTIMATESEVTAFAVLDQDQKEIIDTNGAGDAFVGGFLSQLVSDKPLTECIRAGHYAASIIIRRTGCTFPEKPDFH
Sequence of Mitogen-activated protein kinase kinase kinase 4 (Q9Y6R4 whole entry): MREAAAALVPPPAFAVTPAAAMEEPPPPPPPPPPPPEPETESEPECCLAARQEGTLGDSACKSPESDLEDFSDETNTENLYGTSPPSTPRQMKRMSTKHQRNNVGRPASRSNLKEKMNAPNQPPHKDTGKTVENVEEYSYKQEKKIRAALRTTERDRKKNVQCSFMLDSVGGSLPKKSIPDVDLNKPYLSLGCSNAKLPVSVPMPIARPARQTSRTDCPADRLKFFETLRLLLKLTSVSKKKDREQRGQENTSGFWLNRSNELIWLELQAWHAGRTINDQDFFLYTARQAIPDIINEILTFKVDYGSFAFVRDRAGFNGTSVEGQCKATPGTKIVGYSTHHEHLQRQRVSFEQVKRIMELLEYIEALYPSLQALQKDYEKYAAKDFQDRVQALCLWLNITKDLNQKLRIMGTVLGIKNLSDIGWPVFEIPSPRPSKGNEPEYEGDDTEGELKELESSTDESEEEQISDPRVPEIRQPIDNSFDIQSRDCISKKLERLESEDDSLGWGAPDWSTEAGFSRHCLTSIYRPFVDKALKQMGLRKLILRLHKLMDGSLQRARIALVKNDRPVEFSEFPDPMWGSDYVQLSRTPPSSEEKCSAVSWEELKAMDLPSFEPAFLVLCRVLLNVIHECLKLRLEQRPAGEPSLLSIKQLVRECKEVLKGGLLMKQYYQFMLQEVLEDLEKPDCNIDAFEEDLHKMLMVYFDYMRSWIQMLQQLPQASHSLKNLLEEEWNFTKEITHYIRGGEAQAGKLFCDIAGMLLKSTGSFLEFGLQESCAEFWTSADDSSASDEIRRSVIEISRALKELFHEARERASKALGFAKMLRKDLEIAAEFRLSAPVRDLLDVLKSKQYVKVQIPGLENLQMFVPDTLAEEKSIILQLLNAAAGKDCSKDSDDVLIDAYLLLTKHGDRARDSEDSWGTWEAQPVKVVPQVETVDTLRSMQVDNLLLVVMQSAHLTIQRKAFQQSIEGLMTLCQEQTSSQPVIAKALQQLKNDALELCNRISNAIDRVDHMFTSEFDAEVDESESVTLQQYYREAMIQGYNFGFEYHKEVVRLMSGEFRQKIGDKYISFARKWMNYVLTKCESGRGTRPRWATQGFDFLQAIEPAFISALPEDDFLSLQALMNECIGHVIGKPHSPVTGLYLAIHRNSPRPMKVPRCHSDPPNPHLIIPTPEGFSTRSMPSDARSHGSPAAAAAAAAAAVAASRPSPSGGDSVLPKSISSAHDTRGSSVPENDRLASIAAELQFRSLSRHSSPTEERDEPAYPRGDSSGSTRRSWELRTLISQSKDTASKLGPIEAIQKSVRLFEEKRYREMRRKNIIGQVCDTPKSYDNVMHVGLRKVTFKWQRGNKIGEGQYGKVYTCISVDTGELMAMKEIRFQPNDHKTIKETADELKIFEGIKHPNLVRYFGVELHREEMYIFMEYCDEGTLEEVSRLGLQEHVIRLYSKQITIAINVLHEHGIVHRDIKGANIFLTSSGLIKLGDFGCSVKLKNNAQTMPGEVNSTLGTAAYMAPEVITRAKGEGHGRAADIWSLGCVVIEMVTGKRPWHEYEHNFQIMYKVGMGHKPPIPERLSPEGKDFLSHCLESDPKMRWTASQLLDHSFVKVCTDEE
Sequence of Eukaryotic translation initiation factor 2-alpha kinase 1 (Q9BQI3 whole entry): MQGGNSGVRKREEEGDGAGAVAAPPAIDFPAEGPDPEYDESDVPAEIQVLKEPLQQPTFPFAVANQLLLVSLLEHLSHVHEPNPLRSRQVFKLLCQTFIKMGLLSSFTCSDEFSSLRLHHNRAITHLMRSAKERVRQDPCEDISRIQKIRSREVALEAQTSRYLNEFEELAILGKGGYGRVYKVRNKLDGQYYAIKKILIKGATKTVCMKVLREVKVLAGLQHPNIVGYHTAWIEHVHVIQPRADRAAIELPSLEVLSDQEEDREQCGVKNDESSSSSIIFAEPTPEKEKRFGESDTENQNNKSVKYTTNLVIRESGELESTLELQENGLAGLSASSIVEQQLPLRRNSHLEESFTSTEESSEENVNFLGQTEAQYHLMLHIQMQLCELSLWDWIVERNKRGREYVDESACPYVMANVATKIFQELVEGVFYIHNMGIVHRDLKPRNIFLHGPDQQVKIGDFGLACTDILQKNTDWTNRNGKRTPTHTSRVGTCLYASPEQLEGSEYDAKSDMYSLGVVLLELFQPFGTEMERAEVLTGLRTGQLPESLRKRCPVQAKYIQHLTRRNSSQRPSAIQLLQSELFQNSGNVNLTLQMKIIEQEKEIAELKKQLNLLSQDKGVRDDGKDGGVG
Sequence of Cyclin-dependent kinase 1 (P06493 whole entry): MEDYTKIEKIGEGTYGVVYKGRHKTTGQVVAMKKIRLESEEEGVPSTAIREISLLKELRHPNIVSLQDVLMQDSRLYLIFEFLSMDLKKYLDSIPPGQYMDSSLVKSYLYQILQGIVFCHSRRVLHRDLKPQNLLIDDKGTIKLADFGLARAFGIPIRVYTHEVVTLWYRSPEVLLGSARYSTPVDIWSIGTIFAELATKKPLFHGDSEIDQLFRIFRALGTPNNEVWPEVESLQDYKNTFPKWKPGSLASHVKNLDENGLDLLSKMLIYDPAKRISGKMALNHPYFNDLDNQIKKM

SMILES	Kd (Adenosine kinase)	Kd [1]	Kd [2]	Kd [3]	Kd [4]	Kd [5]	Kd [6]	Kd [7]	Kd [8]	Kd [9]	Kd [10]	Kd [11]	Kd [12]	Kd [13]
CC(C)(O)CC(=O)NCCn1ccc2ncnc(Nc3ccc(Oc4cccc(C(F)(F)F)c4)c(Cl)c3)c21 [TAK-285]	> 30 µM (inactive)	> 30 µM (inactive)	> 30 µM (inactive)	> 30 µM (inactive)	> 30 µM (inactive)	> 30 µM (inactive)	> 30 µM (inactive)	> 30 µM (inactive)	> 30 µM (inactive)	> 30 µM (inactive)	> 30 µM (inactive)	> 30 µM (inactive)	> 30 µM (inactive)	> 30 µM (inactive)
NC[C@@](O)(c1ccc(Cl)cc1)c1ccc(-c2cn[nH]c2)cc1 [AT-13148]	> 30 µM (inactive)	> 30 µM (inactive)	> 30 µM (inactive)	> 30 µM (inactive)	> 30 µM (inactive)	> 30 µM (inactive)	> 30 µM (inactive)	> 30 µM (inactive)	> 30 µM (inactive)	> 30 µM (inactive)	> 30 µM (inactive)	> 30 µM (inactive)	> 30 µM (inactive)	> 30 µM (inactive)
C=CCN(/C=C1/C(=O)O[C@H](COC)[C@@]2(C)C1=C(O)C(=O)C1=C2[C@H](OC(C)=O)C[C@]2(C)C(=O)CC[C@@H]12)CC=C [SONOLISIB]	> 30 µM (inactive)	> 30 µM (inactive)	> 30 µM (inactive)	> 30 µM (inactive)	> 30 µM (inactive)	> 30 µM (inactive)	> 30 µM (inactive)	> 30 µM (inactive)	> 30 µM (inactive)	> 30 µM (inactive)	> 30 µM (inactive)	> 30 µM (inactive)	> 30 µM (inactive)	> 30 µM (inactive)
C[C@@H]1COC(Nc2ccc3ncnc(Nc4ccc(OCc5nccs5)c(Cl)c4)c3c2)=N1 [VARLITINIB]	> 30 µM (inactive)	> 30 µM (inactive)	> 30 µM (inactive)	> 30 µM (inactive)	> 30 µM (inactive)	> 30 µM (inactive)	> 30 µM (inactive)	> 30 µM (inactive)	> 30 µM (inactive)	> 30 µM (inactive)	> 30 µM (inactive)	> 30 µM (inactive)	> 30 µM (inactive)	> 30 µM (inactive)
COCCN1CCN(Cc2ccc(-c3n[nH]c4c3C(=O)c3c(NC(=O)NN5CCOCC5)cccc3-4)cc2)CC1 [RGB-286638]	> 30 µM (inactive)	> 30 µM (inactive)	1.34 µM (active)	0.008 µM (active)	3.8 µM (active)	> 30 µM (inactive)	> 30 µM (inactive)	> 30 µM (inactive)	> 30 µM (inactive)	> 30 µM (inactive)	1.36 µM	> 30 µM (inactive)	> 30 µM (inactive)	> 30 µM (inactive)
C=CC(=O)Nc1cccc(Nc2nc(Nc3ccc(N4CCN(C(C)=O)CC4)cc3OC)ncc2C(F)(F)F)c1 [ROCILETINIB]	> 30 µM (inactive)	0.547 µM (active)	> 30 µM (inactive)	> 30 µM (inactive)	> 30 µM (inactive)	> 30 µM (inactive)	> 30 µM (inactive)	> 30 µM (inactive)	> 30 µM (inactive)	> 30 µM (inactive)	> 30 µM (inactive)	> 30 µM (inactive)	> 30 µM (inactive)	> 30 µM (inactive)
Cc1ccc(C(=O)Nc2ccc(Oc3cc4cnn(C)c4cc3-c3cn[nH]c3)c(F)c2)c(=O)n1-c1ccc(F)cc1 [MERESTINIB]	> 30 µM (inactive)	> 30 µM (inactive)	> 30 µM (inactive)	> 30 µM (inactive)	> 30 µM (inactive)	> 30 µM (inactive)	> 30 µM (inactive)	> 30 µM (inactive)	> 30 µM (inactive)	> 30 µM (inactive)	> 30 µM (inactive)	> 30 µM (inactive)	> 30 µM (inactive)	> 30 µM (inactive)
S=C(NCc1ccc2c(c1)OCO2)N1CCN(c2ncnc3c2oc2ccccc23)CC1 [AMUVATINIB]	> 30 µM (inactive)	> 30 µM (inactive)	> 30 µM (inactive)	> 30 µM (inactive)	> 30 µM (inactive)	> 30 µM (inactive)	> 30 µM (inactive)	> 30 µM (inactive)	> 30 µM (inactive)	> 30 µM (inactive)	> 30 µM (inactive)	> 30 µM (inactive)	> 30 µM (inactive)	> 30 µM (inactive)
COc1cc(F)c(F)c(Nc2ccc(I)cc2F)c1NS(=O)(=O)C1(C[C@H](O)CO)CC1 [REFAMETINIB]	> 30 µM (inactive)	> 30 µM (inactive)	> 30 µM (inactive)	> 30 µM (inactive)	> 30 µM (inactive)	> 30 µM (inactive)	> 30 µM (inactive)	> 30 µM (inactive)	> 30 µM (inactive)	> 30 µM (inactive)	> 30 µM (inactive)	> 30 µM (inactive)	> 30 µM (inactive)	> 30 µM (inactive)
O[C@H]1CC[C@H](Nc2ncc3nc(Nc4c(F)cc(F)cc4F)n([C@H]4CCOC4)c3n2)CC1 [TANZISERTIB]	> 30 µM (inactive)	> 30 µM (inactive)	> 30 µM (inactive)	> 30 µM (inactive)	> 30 µM (inactive)	> 30 µM (inactive)	> 30 µM (inactive)	> 30 µM (inactive)	> 30 µM (inactive)	> 30 µM (inactive)	> 30 µM (inactive)	> 30 µM (inactive)	> 30 µM (inactive)	> 30 µM (inactive)
C#Cc1cccc(Nc2ncnc3cc4c(cc23)OCCOCCOCCO4)c1 [ICOTINIB]	> 30 µM (inactive)	> 30 µM (inactive)	> 30 µM (inactive)	> 30 µM (inactive)	> 30 µM (inactive)	4.13 µM (active)	> 30 µM (inactive)	> 30 µM (inactive)	> 30 µM (inactive)	> 30 µM (inactive)	> 30 µM (inactive)	> 30 µM (inactive)	> 30 µM (inactive)	> 30 µM (inactive)
